From article PMC5218480 (PLoS ONE, 2017)

Tested on: MV-4-11 cells
Assay: Gene expression microarray analysis (Affymetrix PrimeView) and GSEA
Type: cell-based, human
Design: RFU PODN (11730768_x_at) / Fold change /veh PODN (11730768_x_at) / RFU LINC00158 (11744669_a_at) / Fold change /veh LINC00158 (11744669_a_at) / RFU DUSP10 (11751237_a_at) / Fold change /veh DUSP10 (11751237_a_at) / RFU ID3 (11757404_x_at) / Fold change /veh ID3 (11757404_x_at) / RFU PLEKHG5 (11737974_s_at) / Fold change /veh PLEKHG5 (11737974_s_at) / RFU LRRC4B (11730491_at) / Fold change /veh LRRC4B (11730491_at) / RFU GIMAP4 (11747438_a_at) / Fold change /veh GIMAP4 (11747438_a_at) / RFU KRT8 (11758183_x_at) / Fold change /veh KRT8 (11758183_x_at) / RFU CNN1 (11734310_a_at) / Fold change /veh CNN1 (11734310_a_at) / RFU VPS37D (11726825_at) / Fold change /veh VPS37D (11726825_at) / RFU C10orf10 (11716522_x_at) / Fold change /veh C10orf10 (11716522_x_at) / RFU KIR2DL2 /// KIR2DL4 /// KIR2DL5A /// KIR2DL5B /// KIR2DS1 /// KIR2DS2 /// KIR2DS3 /// KIR2DS4 /// KIR3DL3 /// KIR3DL3 /// KIR3DS1 (11738374_at) / Fold change /veh KIR2DL2 /// KIR2DL4 /// KIR2DL5A /// KIR2DL5B /// KIR2DS1 /// KIR2DS2 /// KIR2DS3 /// KIR2DS4 /// KIR3DL3 /// KIR3DL3 /// KIR3DS1 (11738374_at) / RFU C1QL1 (11718748_at) / Fold change /veh C1QL1 (11718748_at) / RFU TMPRSS4 (11747572_a_at) / Fold change /veh TMPRSS4 (11747572_a_at) / RFU HAMP (11756126_x_at) / Fold change /veh HAMP (11756126_x_at) / RFU RNFT2 (11725882_a_at) / Fold change /veh RNFT2 (11725882_a_at) / RFU NR4A2 (11747474_a_at) / Fold change /veh NR4A2 (11747474_a_at) / RFU ABCC12 (11746883_a_at) / Fold change /veh ABCC12 (11746883_a_at) / RFU TMEM136 (11760407_x_at) / Fold change /veh TMEM136 (11760407_x_at) / RFU CLDN22 /// WWC2 (11732394_at) / Fold change /veh CLDN22 /// WWC2 (11732394_at) / RFU HLA-DPB1 (11760878_x_at) / Fold change /veh HLA-DPB1 (11760878_x_at) / RFU SPINT1 (11716480_a_at) / Fold change /veh SPINT1 (11716480_a_at) / RFU GAP43 (11754022_s_at) / Fold change /veh GAP43 (11754022_s_at) / RFU A4GNT (11735810_at) / Fold change /veh A4GNT (11735810_at) / RFU PRB3 (11715151_x_at) / Fold change /veh PRB3 (11715151_x_at) / RFU TUBB4B (11761932_at) / Fold change /veh TUBB4B (11761932_at) / RFU CAPN14 (11732068_a_at) / Fold change /veh CAPN14 (11732068_a_at) / RFU TMCC2 (11721928_a_at) / Fold change /veh TMCC2 (11721928_a_at) / RFU IRGQ (11745062_a_at) / Fold change /veh IRGQ (11745062_a_at) / RFU FAM174B (11720279_a_at) / Fold change /veh FAM174B (11720279_a_at) / RFU TMPRSS4 (11748680_a_at) / Fold change /veh TMPRSS4 (11748680_a_at) / RFU FAM212B (11763350_a_at) / Fold change /veh FAM212B (11763350_a_at) / RFU PLEKHG5 (11743358_a_at) / Fold change /veh PLEKHG5 (11743358_a_at) / RFU ZSCAN30 (11745921_a_at) / Fold change /veh ZSCAN30 (11745921_a_at) / RFU CMKLR1 (11741424_a_at) / Fold change /veh CMKLR1 (11741424_a_at) / RFU LOC101060620 /// MAPK8IP1 (11723275_at) / Fold change /veh LOC101060620 /// MAPK8IP1 (11723275_at) / RFU SPTSSB (11747773_x_at) / Fold change /veh SPTSSB (11747773_x_at) / RFU PRSS12 (11739890_at) / Fold change /veh PRSS12 (11739890_at) / RFU BIN1 (11741810_x_at) / Fold change /veh BIN1 (11741810_x_at) / RFU WNT11 (11732464_a_at) / Fold change /veh WNT11 (11732464_a_at) / RFU C10orf10 (11716521_a_at) / Fold change /veh C10orf10 (11716521_a_at) / RFU C5orf56 (11738089_at) / Fold change /veh C5orf56 (11738089_at) / RFU CYB561 (11721691_x_at) / Fold change /veh CYB561 (11721691_x_at) / RFU ANKRD19P (11752326_a_at) / Fold change /veh ANKRD19P (11752326_a_at) / RFU OR2T12 /// OR2T33 /// OR2T8 (11738714_s_at) / Fold change /veh OR2T12 /// OR2T33 /// OR2T8 (11738714_s_at) / RFU VCAN (11748164_a_at) / Fold change /veh VCAN (11748164_a_at) / RFU JSRP1 (11732532_at) / Fold change /veh JSRP1 (11732532_at) / RFU KRTAP10-11 (11738290_x_at) / Fold change /veh KRTAP10-11 (11738290_x_at) / RFU MYO3A (11730013_a_at) / Fold change /veh MYO3A (11730013_a_at) / RFU EBF3 (11725865_a_at) / Fold change /veh EBF3 (11725865_a_at) / RFU CAMK2N1 (11719241_x_at) / Fold change /veh CAMK2N1 (11719241_x_at) / RFU C5orf56 (11738088_a_at) / Fold change /veh C5orf56 (11738088_a_at) / RFU OLFML3 (11715873_a_at) / Fold change /veh OLFML3 (11715873_a_at) / RFU LOC100653217 /// NTM (11731650_a_at) / Fold change /veh LOC100653217 /// NTM (11731650_a_at) / RFU MAPK11 (11762145_a_at) / Fold change /veh MAPK11 (11762145_a_at) / RFU FIZ1 (11724087_x_at) / Fold change /veh FIZ1 (11724087_x_at) / RFU OASL (11726364_x_at) / Fold change /veh OASL (11726364_x_at) / RFU SOX15 (11748057_x_at) / Fold change /veh SOX15 (11748057_x_at) / RFU CD79A (11719716_a_at) / Fold change /veh CD79A (11719716_a_at) / RFU HIST1H1D (11736915_at) / Fold change /veh HIST1H1D (11736915_at) / RFU CASKIN2 (11723855_a_at) / Fold change /veh CASKIN2 (11723855_a_at) / RFU LOC730098 (11760151_x_at) / Fold change /veh LOC730098 (11760151_x_at) / RFU OR4N2 (11742367_at) / Fold change /veh OR4N2 (11742367_at) / RFU PRRT2 (11749266_a_at) / Fold change /veh PRRT2 (11749266_a_at) / RFU SNX32 (11753110_a_at) / Fold change /veh SNX32 (11753110_a_at) / RFU CDHR5 (11726645_a_at) / Fold change /veh CDHR5 (11726645_a_at) / RFU RCAN1 (11760418_a_at) / Fold change /veh RCAN1 (11760418_a_at) / RFU FAM167A (11723789_a_at) / Fold change /veh FAM167A (11723789_a_at) / RFU FAM26E (11764081_at) / Fold change /veh FAM26E (11764081_at) / RFU ISYNA1 (11749810_s_at) / Fold change /veh ISYNA1 (11749810_s_at) / RFU ACY1 (11761880_at) / Fold change /veh ACY1 (11761880_at) / RFU 11764098_at / Fold change /veh 11764098_at / RFU SAMD14 (11745864_x_at) / Fold change /veh SAMD14 (11745864_x_at) / RFU NPB (11741838_a_at) / Fold change /veh NPB (11741838_a_at) / RFU TMPRSS6 (11731388_a_at) / Fold change /veh TMPRSS6 (11731388_a_at) / RFU KRTAP10-2 (11738614_at) / Fold change /veh KRTAP10-2 (11738614_at) / RFU ARHGAP8 /// PRR5-ARHGAP8 (11727945_x_at) / Fold change /veh ARHGAP8 /// PRR5-ARHGAP8 (11727945_x_at) / RFU KRTAP5-7 /// NADSYN1 (11734609_at) / Fold change /veh KRTAP5-7 /// NADSYN1 (11734609_at) / RFU RASL12 (11751679_a_at) / Fold change /veh RASL12 (11751679_a_at) / RFU CDKN2B (11736163_a_at) / Fold change /veh CDKN2B (11736163_a_at) / RFU PRF1 (11729649_at) / Fold change /veh PRF1 (11729649_at) / RFU, ZNF638 /// ZNF638-IT1 / Fold change vs veh, ZNF638 /// ZNF638-IT1 / RFU, PANK3 / Fold change vs veh, PANK3 / RFU, SH3YL1 / Fold change vs veh, SH3YL1 / RFU, ZEB2 / Fold change vs veh, ZEB2 / RFU, NRIP1 / Fold change vs veh, NRIP1 / RFU, PTTG1IP / Fold change vs veh, PTTG1IP / RFU, CAPN2 / Fold change vs veh, CAPN2 / RFU, MED14 / Fold change vs veh, MED14 / RFU, SNORA58 / Fold change vs veh, SNORA58 / RFU, C1orf63 / Fold change vs veh, C1orf63 / RFU, LRRFIP1 / Fold change vs veh, LRRFIP1 / RFU, NDUFAF7 / Fold change vs veh, NDUFAF7 / RFU, SLC12A2 / Fold change vs veh, SLC12A2 / RFU, IBTK / Fold change vs veh, IBTK / RFU, ESF1 / Fold change vs veh, ESF1 / Fold change vs veh, TMEM50B / RFU, TAOK1 / Fold change vs veh, TAOK1 / RFU, ACBD3 / Fold change vs veh, ACBD3 / RFU, TMA16 / Fold change vs veh, TMA16 / RFU, RWDD3 / Fold change vs veh, RWDD3 / RFU, BCAT1 / Fold change vs veh, BCAT1 / RFU, EDEM3 / Fold change vs veh, EDEM3 / RFU, TMEM33 / Fold change vs veh, TMEM33 / RFU, WDR75 / Fold change vs veh, WDR75 / RFU, AHCTF1 / Fold change vs veh, AHCTF1 / RFU, TFRC / Fold change vs veh, TFRC / RFU, ZDHHC17 / Fold change vs veh, ZDHHC17 / RFU, NOM1 / Fold change vs veh, NOM1 / RFU, ARL8B / Fold change vs veh, ARL8B / RFU, ZBTB11 / Fold change vs veh, ZBTB11 / RFU, TAMM41 / Fold change vs veh, TAMM41 / RFU, KIAA1704 /// LOC100996395 / Fold change vs veh, KIAA1704 /// LOC100996395 / RFU, ING1 / Fold change vs veh, ING1 / RFU, TRMT61B / Fold change vs veh, TRMT61B / RFU, FUBP3 / Fold change vs veh, FUBP3 / RFU, TP53 / Fold change vs veh, TP53 / RFU, TNKS2 / Fold change vs veh, TNKS2 / RFU, ZFP14 / Fold change vs veh, ZFP14 / RFU, ACTR2 / Fold change vs veh, ACTR2 / RFU, PPP3R1 / Fold change vs veh, PPP3R1 / RFU, PIK3R1 / Fold change vs veh, PIK3R1 / RFU, HNRNPA1 / Fold change vs veh, HNRNPA1 / RFU, RNF170 / Fold change vs veh, RNF170 / RFU, ZNF28 / Fold change vs veh, ZNF28 / RFU, RNGTT / Fold change vs veh, RNGTT / RFU, OGT / Fold change vs veh, OGT / RFU, BRD1 / Fold change vs veh, BRD1 / RFU, MARS / Fold change vs veh, MARS / RFU, ZNF655 / Fold change vs veh, ZNF655 / RFU, FAHD1 / Fold change vs veh, FAHD1 / RFU, BDP1 / Fold change vs veh, BDP1 / RFU, LRRCC1 / Fold change vs veh, LRRCC1 / RFU, ARID1A / Fold change vs veh, ARID1A / RFU, ZNF146 / Fold change vs veh, ZNF146 / RFU, ZNF330 / Fold change vs veh, ZNF330 / RFU, GPN3 / Fold change vs veh, GPN3 / RFU, C9orf123 / Fold change vs veh, C9orf123 / RFU, N4BP2L2 / Fold change vs veh, N4BP2L2 / RFU, ARFIP1 / Fold change vs veh, ARFIP1 / RFU, FAM179B / Fold change vs veh, FAM179B / RFU, BCL10 / Fold change vs veh, BCL10 / RFU, UHRF1BP1L / Fold change vs veh, UHRF1BP1L / RFU, BET1 / Fold change vs veh, BET1 / RFU, CNOT2 / Fold change vs veh, CNOT2 / RFU, ZNF268 / Fold change vs veh, ZNF268 / Fold change vs veh, ZNF507 / RFU, DGCR2 / Fold change vs veh, DGCR2 / RFU, WDSUB1 / Fold change vs veh, WDSUB1 / Fold change vs veh, HSP90B1 /// MIR3652 / RFU, ADSS / Fold change vs veh, ADSS / RFU, GK / Fold change vs veh, GK / RFU, ZNF148 / Fold change vs veh, ZNF148 / RFU, TAF9 / Fold change vs veh, TAF9 / RFU, SLC1A5 / Fold change vs veh, SLC1A5 / RFU, SLMO2 / Fold change vs veh, SLMO2 / RFU, ABCC4 / Fold change vs veh, ABCC4 / RFU, LOC101060439 /// RAP1B / Fold change vs veh, LOC101060439 /// RAP1B / RFU, RFX7 / Fold change vs veh, RFX7 / RFU, GTPBP10 / Fold change vs veh, GTPBP10 / RFU, CNEP1R1 / Fold change vs veh, CNEP1R1 / RFU, BIVM-ERCC5 /// ERCC5 / Fold change vs veh, BIVM-ERCC5 /// ERCC5 / RFU, ILF3 / Fold change vs veh, ILF3 / RFU 11762660_at / Fold change /veh 11762660_at / RFU VCAN (11757783_s_at) / Fold change /veh VCAN (11757783_s_at) / RFU DDX43 (11728927_at) / Fold change /veh DDX43 (11728927_at) / RFU KRT8 (11758188_x_at) / Fold change /veh KRT8 (11758188_x_at) / RFU NKD1 (11759106_at) / Fold change /veh NKD1 (11759106_at) / RFU SRD5A1 (11742802_a_at) / Fold change /veh SRD5A1 (11742802_a_at) / RFU TPSAB1 /// TPSB2 (11721975_s_at) / Fold change /veh TPSAB1 /// TPSB2 (11721975_s_at) / RFU GSTM3 (11746129_a_at) / Fold change /veh GSTM3 (11746129_a_at) / RFU IL23R (11737362_x_at) / Fold change /veh IL23R (11737362_x_at) / RFU TMEM51 (11727254_a_at) / Fold change /veh TMEM51 (11727254_a_at) / RFU PIWIL2 (11732686_x_at) / Fold change /veh PIWIL2 (11732686_x_at) / RFU ORM1 (11744905_x_at) / Fold change /veh ORM1 (11744905_x_at) / RFU CCDC152 (11743942_at) / Fold change /veh CCDC152 (11743942_at) / RFU ECM1 (11717891_a_at) / Fold change /veh ECM1 (11717891_a_at) / RFU IL23R (11748794_a_at) / Fold change /veh IL23R (11748794_a_at) / RFU TNFAIP8L3 (11732012_x_at) / Fold change /veh TNFAIP8L3 (11732012_x_at) / RFU MBOAT4 (11741988_at) / Fold change /veh MBOAT4 (11741988_at) / RFU 11764193_at / Fold change /veh 11764193_at / RFU TMEM53 (11763286_at) / Fold change /veh TMEM53 (11763286_at) / RFU MAGEB2 (11727129_at) / Fold change /veh MAGEB2 (11727129_at) / RFU TMEM200A (11744735_a_at) / Fold change /veh TMEM200A (11744735_a_at) / RFU CCDC152 (11751479_a_at) / Fold change /veh CCDC152 (11751479_a_at) / RFU FAM211A (11726209_a_at) / Fold change /veh FAM211A (11726209_a_at) / RFU RGS16 (11746705_a_at) / Fold change /veh RGS16 (11746705_a_at) / RFU VCAN (11755009_s_at) / Fold change /veh VCAN (11755009_s_at) / RFU RHOB (11743442_s_at) / Fold change /veh RHOB (11743442_s_at) / RFU RGS16 (11720943_a_at) / Fold change /veh RGS16 (11720943_a_at) / RFU RGS16 (11720944_at) / Fold change /veh RGS16 (11720944_at) / RFU, VPS4B / Fold change vs veh, VPS4B / RFU, CREB1 / Fold change vs veh, CREB1 / RFU, DNAJC13 / Fold change vs veh, DNAJC13 / RFU, GNAQ / Fold change vs veh, GNAQ / RFU, CDK5R1 / Fold change vs veh, CDK5R1 / RFU, ZRANB3 / Fold change vs veh, ZRANB3 / RFU, CUL4A / Fold change vs veh, CUL4A / RFU, CCNY / Fold change vs veh, CCNY / RFU, UFL1 / Fold change vs veh, UFL1 / RFU, COG3 / Fold change vs veh, COG3 / RFU, DIAPH2 / Fold change vs veh, DIAPH2 / RFU, SKA2 / Fold change vs veh, SKA2 / RFU, AFF3 / Fold change vs veh, AFF3 / RFU, LMF1 / Fold change vs veh, LMF1 / RFU, IPO11 / Fold change vs veh, IPO11 / RFU, DFFB / Fold change vs veh, DFFB / RFU, FOXP1 / Fold change vs veh, FOXP1 / RFU, CARD8 / Fold change vs veh, CARD8 / RFU, STRN3 / Fold change vs veh, STRN3 / RFU, ADK / Fold change vs veh, ADK / RFU, RASSF2 / Fold change vs veh, RASSF2 / RFU, WIPF1 / Fold change vs veh, WIPF1 / RFU, LARP1B / Fold change vs veh, LARP1B / RFU, RASA1 / Fold change vs veh, RASA1 / RFU, RB1 / Fold change vs veh, RB1 / RFU, PPFIA1 / Fold change vs veh, PPFIA1 / RFU, MAT2A / Fold change vs veh, MAT2A / RFU, CCT5 / Fold change vs veh, CCT5 / RFU, WDR92 / Fold change vs veh, WDR92 / RFU, CUX1 / Fold change vs veh, CUX1 / RFU, TTC7A / Fold change vs veh, TTC7A / RFU, TMEM135 / Fold change vs veh, TMEM135 / RFU, DEPTOR / Fold change vs veh, DEPTOR / RFU, CPM / Fold change vs veh, CPM / RFU, DNAJB6 / Fold change vs veh, DNAJB6 / RFU, CACNA2D3 / Fold change vs veh, CACNA2D3 / RFU, DTX4 / Fold change vs veh, DTX4 / RFU, TFCP2 / Fold change vs veh, TFCP2 / RFU, GMCL1 /// GMCL1P1 / Fold change vs veh, GMCL1 /// GMCL1P1 / RFU, AEBP2 / Fold change vs veh, AEBP2 / RFU, SNHG1 /// SNORD22 /// SNORD25 /// SNORD26 /// SNORD27 /// SNORD28 /// SNORD29 /// SNORD31 / Fold change vs veh, SNHG1 /// SNORD22 /// SNORD25 /// SNORD26 /// SNORD27 /// SNORD28 /// SNORD29 /// SNORD31 / Fold change (Aza/veh), C12orf56 (ProbeSet 11735607_a_at) / Fold change (ACY-1035/veh), C12orf56 (ProbeSet 11735607_a_at) / Fold change (Aza/veh), FGFR1OP (ProbeSet 11751329_s_at) / Fold change (ACY-1035/veh), FGFR1OP (ProbeSet 11751329_s_at) / Fold change (Aza/veh), VPS36 (ProbeSet 11739960_a_at) / Fold change (ACY-1035/veh), VPS36 (ProbeSet 11739960_a_at) / RFU SYPL1 (11715823_x_at) / Fold change /veh SYPL1 (11715823_x_at) / RFU IGFBP7 (11715501_s_at) / Fold change /veh IGFBP7 (11715501_s_at) / RFU REEP3 (11722064_at) / Fold change /veh REEP3 (11722064_at) / RFU IGLL1 (11728026_x_at) / Fold change /veh IGLL1 (11728026_x_at): dose or concentration left out as unconfirmed
Details: MV-4-11 cells, 48 hours

## Nc1ncn([C@@H]2O[C@H](CO)[C@@H](O)[C@H]2O)c(=O)n1 [azacitidine]
  RFU IL23R (11737362_x_at): 11.80 RFU
